Patent publication US9303069B2, “Peptides for treating cancer” (University of Mississippi Medical Center, priority 2014, dated 2016)

How the values were obtained:
HME/IRIS cells = assay: cells; settings: Homo sapiens, read-out: IC50 of paclitaxel (viability)
Experimental: (§2) All cell lines were exposed to increasing concentrations of paclitaxel and BRCA1-IRIS expression, and cells' viability was then measured.
(§3) Cell viability measurement. Cell viability under different experimental conditions was determined using the MTS assay. Briefly, cells (2.5×10^4 cells per well) were seeded in 96-well plates and incubated overnight at 37° C. in 10% humidified CO2 atmosphere. The next day they were incubated with varying concentration of peptide, or inhibitors for 24 hours at 37° C. Cell viability was determined using cell Titer 96® Aqueous (Promega, Madison, Wis., USA) following manufacturer's instructions. Cell viability (%) was expressed as a ratio of treated cells to control cells×100. […] Each experiment was done in triplicate, repeated three separate times.

MDA-MB-468 cells = assay: cells; settings: Homo sapiens, MDA-MB-468, read-out: IC50 of paclitaxel (viability)
Experimental: as §2
(§4) Stable clones were then exposed to 0, 10 or 20 μM of EGFR (Erlotinib), ErbB2 (CP-724714), PI3′K/AKT (LY294002), p38 (SB203580), ERK (PD98059) or JNK (SP600125) inhibitors for 24 hours.

BRCA1-IRIS = BRCA1-IRIS expression in breast cells (Western); type: cell-based, human
Experimental: HME and HME/IRIS cells were treated with 10, 20 and 50 μM of paclitaxel for 24 hours. Compared to HME/IRIS cells, untreated HME cells express very low level of BRCA1-IRIS (FIG. 68, left). […] Both EGF and NRG1, which were secreted at higher levels from untreated HME/IRIS cells, remained high after paclitaxel (until ˜50 μM, FIG. 68, left), whereas in HME cells, both were induced by low paclitaxel treatment (FIG. 68, left). Consistently, in HME/IRIS cells EGFR was phosphorylated on Y1173 (activated by EGF when EGFR is in complex with ErbB2) and ErbB2 on Y1248 (activated by NRG1 when ErbB2 is in complex with ErbB3) remained the same after paclitaxel treatment (until ˜50 μM, FIG. 68, left). Phosphorylated EGFR-Y1173 and ErbB2-Y1248 was only observed in paclitaxel treated HME cells, especially at low concentration (FIG. 68, left).
Survived/paclitaxel-resistant cells were then propagated in the absence of paclitaxel and analyzed. Again, the intrinsically high level of BRCA1-IRIS was not affected by paclitaxel in HME/IRIS cells (FIG. 69, left). […] The expressions of EGFR, ErbB2 and ErbB3 were high in HME/IRIS and HME cells (FIG. 69, left). Despite an intrinsic increase in HME/IRIS and paclitaxel-acquired increase in HME cells in AKT activation, FOXO inactivation/degradation and thus activation increase in CyclinD1, survivin, Bcl-2, Bcl-xL and NF-κB was observed (FIG. 69, right).
To test that hypothesis, an intron 11 peptide (right in FIG. 26) fused to a cell/nucleus penetrating signal at its N-terminus (left in FIG. 26) was synthesized (hereafter IRIS peptide). First, to assess the effect of this IRIS peptide, equal numbers of HME, HME/IRIS, MDA-MB-231, MDA-MB-468 and BT549 cells were exposed to increasing concentrations of scrambled or IRIS peptide for 48 hours. […] It is possible that preventing BRCA1-IRIS-X complex formation destabilizes BRCA1-IRIS and perhaps leads to its degradation.
(§1) To investigate whether inactivating BRCA1-IRIS could sensitize TNBC to paclitaxel-induced cell death, HME cells were exposed to 0.5 μM, while HME/IRIS, MDA-MB-231, MDA-MB-468 and BT549 cells were exposed to 5 μM of IRIS peptide alone or with 5, 10 or 20 μM of paclitaxel for 24 hours. […] Again, IRIS peptide alone at these concentrations led to 50% reduction in survival of all cell lines. […] Indeed, in the presence of IRIS peptide >60%, >70% and >90% reduction in the survival of all cell lines in the presence of 5, 10 and 20 μM of paclitaxel, respectively (FIG. 84).
To relate the effect of IRIS peptide on cell survival to the effect of BRCA1-IRIS on AKT and ERK survival pathways, MDA-MB-231 and MDA-MB-468 were treated with vehicle, 5 μM of IRIS peptide, 10 μM LY294002, 10 μM PD98059 for 24 hours or were transfected with BRCA1-IRIS siRNA for 72 hours.

MDA-MB-231 cells = assay: cells; settings: Homo sapiens, MDA-MB-231, read-out: IC50 of paclitaxel (viability)
Experimental: as §2, §4

BT549 cells = assay: cells; settings: Homo sapiens, BT-549, read-out: IC50 of paclitaxel (viability)
Experimental: as §2, §3

BRCA1-IRIS and survivin = assay: IHC of MDA-MB-468 tumors for BRCA1-IRIS and survivin; type: in vivo, mice; settings: MDA-MB-468 tumors after treatment
Source text: To study that on the molecular level, sections from these tumors were stained with H&E or for BRCA1-IRIS or survivin using immunohistochemistry. […] Accordingly, it is proposed that inactivating BRCA1-IRIS in TNBC patients might sensitize to lower paclitaxel concentrations to avoid the adverse side effects and also to prevent the recurrence of these tumors at a later point.
Immunohistochemistry (IHC). Breast tissue microarrays comprised of normal, DCIS, invasive and metastatic were purchased from US Biomax, Inc. Paraffin embedded tissue sections were de-waxed in xylene and rehydrated in alcohol. Antigen-retrieval: for FOXO3a and survivin was by heating the slides in citrate buffer (10 μM, pH 6.0) using microwave (Power level 4) for 10 minutes, for BRCA1-IRIS by incubating slides in pepsin (10 μM) for 20 min at 37° C. Endogenous peroxidase activity was suppressed by treating the slides with 3% H2O2 for 10 min. Slides were then incubated for 1 hour at room temperature with antibodies to human FOXO3a or survivin (Cell Signaling Technology, USA 1:400), or overnight at 4° C. with monoclonal anti-human BRCA1-IRIS (1:75). Vectastain Elite ABC Kit was used to develop the staining using horseradish peroxidase labeled secondary antibodies (1 hour at room temperature).

HME cells = assay: cells; settings: Homo sapiens, read-out: IC50 of paclitaxel (viability)
Experimental: as §2, §3

[1] = test system: HME, HME/IRIS, MDA-MB-231, MDA-MB-468 and BT549 cells; assay: Survival of breast cell lines with IRIS peptide, paclitaxel or both; type: cell-based, human; settings: all cell lines, 24 hours
Experimental: as §1
Cell viability measurement. Cell viability under different experimental conditions was determined using the MTS assay. Briefly, cells (2.5×10^4 cells per well) were seeded in 96-well plates and incubated overnight at 37° C. in 10% humidified CO2 atmosphere. The next day they were incubated with varying concentration of peptide, or inhibitors for 24 hours at 37° C. Cell viability was determined using cell Titer 96® Aqueous (Promega, Madison, Wis., USA) following manufacturer's instructions. Cell viability (%) was expressed as a ratio of treated cells to control cells×100. Growth inhibition was also determined by manually counting cells in five different microscopic fields. Change in cell numbers (fold) was expressed as a ratio of the means of these recording of treated cells compared to control cells×100. Each experiment was done in triplicate, repeated three separate times.

MDA-MB-468 tumors = assay: In vivo efficacy on established MDA-MB-468 tumors; design: species or system mice; settings: 12 days; paclitaxel 10 mg/kg i.p., every third day, four injections
Experimental: Nude 6-8 weeks female mice were injected with 2×10^6 of MDA-MB-468 cells in the 2nd left and 4th right mammary fat pads. When all tumors reached ˜0.1 cm^3 in volume, mice were divided into four groups, one received vehicles (i.e. DMSO injected intraperitoneally [i.p.] and scrambled peptide injected directly into tumors [i.t.]), another received paclitaxel (10 mg/kg, i.p.), the third received IRIS peptide at (10 mg/kg, i.t.), and the last received paclitaxel and IRIS peptide at half the concentrations, injected as above. Drugs were delivered every third day for total of four injections.
In Vivo efficacy of BRCA1-IRIS-inhibitory peptide. Six to eight week old female athymic SCID mice were injected in the second right and the fourth left mammary gland with 2.5×10^6 of MDAMB468 cells. Tumor growth was followed daily until tumors reached 100 mm^3. At this time mice were randomly grouped into four different groups that were injected: a) with DMSO (i.p.) and scrambled peptide (10 mg/kg) intra-tumoral (i.t.), b) injected with IRIS peptide (10 mg/kg, i.t.), c) injected with paclitaxel (10 mg/kg, i.p.), d) injected with IRIS peptide (5 mg/kg, i.t.), and paclitaxel (5 mg/kg, i.p.). […] Change in tumor volume was measured to monitor the efficacy of the treatments using caliper and is represented as percentage of volume at day 0 of treatment. […]

CC(=O)O[C@H]1C(=O)[C@@]2(C)[C@H]([C@H](OC(=O)c3ccccc3)[C@]3(O)C[C@H](OC(=O)[C@H](O)[C@@H](NC(=O)c4ccccc4)c4ccccc4)C(C)=C1C3(C)C)[C@]1(OC(C)=O)CO[C@@H]1C[C@@H]2O [paclitaxel]
IC50 (HME/IRIS cells): ~50 µM
IC50 (MDA-MB-468 cells): < 20 µM
BRCA1-IRIS expression in HME cells (BRCA1-IRIS; 1 μM of paclitaxel for 1 or 3 weeks): acquired-induction in BRCA1-IRIS expression was detected
BRCA1-IRIS expression in HME cells (BRCA1-IRIS; 10 and 20 μM paclitaxel, 24 hours): significantly upregulated BRCA1-IRIS expression
BRCA1-IRIS expression in HME/IRIS cells (BRCA1-IRIS; paclitaxel 24 hours, until ~50 μM): did not alter the expression of BRCA1-IRIS
IC50 (MDA-MB-231 cells): > 50 µM
IC50 (BT549 cells): ~35 µM
BRCA1-IRIS and survivin expression in tumors (IHC) (BRCA1-IRIS and survivin): significantly increase BRCA1-IRIS and survivin expression
IC50 (HME cells): ~5 µM
reduction in survival ([1]; paclitaxel alone at 5 μM): ~50%
reduction in survival ([1]; paclitaxel alone at 10 μM): ~60%
reduction in survival ([1]; paclitaxel alone at 20 μM): ~70%
tumor size relative to control tumors (MDA-MB-468 tumors): half the size of the control tumors
